Test results: US6472348B1, “Pyridone derivatives and herbicides” (Kumiai Chemical Industry Co., Ltd., priority 1996, dated 2002)

Legend:
Type in all cases: in vivo
Design in all cases: scale not given here
cotton (Go) = test: Test Example 4: crop plant selectivity by upland field soil treatment (cotton), phytotoxicity; settings: evaluated 21st day after application
Summary of the method: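 Weeds and cotton, sown in sand and topped with soil, received a soil-applied treatment. Evaluation after three weeks in a greenhouse followed a standard rating scale.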

China jute (Ab) [1] = test: Test Example 5: crop plant selectivity by upland field soil treatment (wheat), herbicidal effects; settings: 21st day after application
Summary of the method: (§1)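 Wheat and weeds were sown in sand-filled pots and covered with soil, then treated by soil application. Plants grew in a greenhouse, and herbicidal effect and crop phytotoxicity were scored on a rating scale 21 days after application.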

[2] = system: common lambsquarters (Ch); test: as above; settings: 21st day after application
Summary of the method: as §1

green foxtail (Se) [3] = test: as above; settings: 21st day after application
Summary of the method: as §1

pale smartweed (Po) [4] = test: as above; settings: 21st day after application
Summary of the method: as §1

slender amaranth (Am) = test: as above; settings: 21st day after application
Summary of the method: as §1

China jute (Ab) [5] = test: Test Example 6: crop plant selectivity by upland field soil treatment (soybean), herbicidal effects; settings: 21st day after application
Summary of the method: (§2)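 Soybean and weeds sown in sand-filled pots and covered with soil, then treated by soil application. Plants grown in a greenhouse, with herbicidal effect and crop phytotoxicity scored on day 21 after application against a fixed rating scale.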

[6] = system: common lambsquarters (Ch); test: as above; settings: 21st day after application
Summary of the method: as §2

green foxtail (Se) [7] = test: as above; settings: 21st day after application
Summary of the method: as §2

pale smartweed (Po) [8] = test: as above; settings: 21st day after application
Summary of the method: as §2

SMILES | Phytotoxicity Go (cotton (Go); dose 6.3 g ai/10 a) | Herbicidal effects Ab (China jute (Ab) [1]; dose 1.6 g ai/10a) | Herbicidal effects Ab (China jute (Ab) [1]; dose 6.3 g ai/10a) | Herbicidal effects Ch ([2]; dose 1.6 g ai/10a) | Herbicidal effects Ch ([2]; dose 6.3 g ai/10a) | Herbicidal effects Se (green foxtail (Se) [3]; dose 1.6 g ai/10a) | Herbicidal effects Se (green foxtail (Se) [3]; dose 6.3 g ai/10a) | Herbicidal effects Po (pale smartweed (Po) [4]; dose 1.6 g ai/10a) | Herbicidal effects Po (pale smartweed (Po) [4]; dose 6.3 g ai/10a) | Herbicidal effects Am (slender amaranth (Am); dose 1.6 g ai/10a) | Herbicidal effects Am (slender amaranth (Am); dose 6.3 g ai/10a) | Herbicidal effects Ab (China jute (Ab) [5]; dose 1.6 g ai/10a) | Herbicidal effects Ab (China jute (Ab) [5]; dose 6.3 g ai/10a) | Herbicidal effects Ch ([6]; dose 1.6 g ai/10a) | Herbicidal effects Ch ([6]; dose 6.3 g ai/10a) | Herbicidal effects Se (green foxtail (Se) [7]; dose 1.6 g ai/10a) | Herbicidal effects Se (green foxtail (Se) [7]; dose 6.3 g ai/10a) | Herbicidal effects Po (pale smartweed (Po) [8]; dose 1.6 g ai/10a) | Herbicidal effects Po (pale smartweed (Po) [8]; dose 6.3 g ai/10a) | Phytotoxicity Go (cotton (Go); dose 1.6 g ai/10 a)
Cn1c(C(F)(F)F)ccc(-c2cc(Cl)c(Cl)cc2F)c1=O [1-136] | 1 | 4 | 5 | 5 | 5 | 5 | 5 | 5 | 5 | 5 | 5 | 4 | 5 | 5 | 5 | 5 | 5 | 5 | 5 | –
Cn1c(C(F)(F)F)ccc(-c2cc(OCC(F)(F)F)c(Cl)cc2F)c1=O [1-155] | 0 | 5 | 5 | 5 | 5 | 5 | 5 | 5 | 5 | 5 | 5 | 5 | 5 | 5 | 5 | 5 | 5 | 5 | 5 | 0
Cn1c(C(F)(F)F)ccc(-c2cc(OCC3CC3)c(Cl)cc2F)c1=O [1-160] | 1 | – | 5 | – | 5 | – | 5 | – | 5 | – | 5 | – | 5 | – | 5 | – | 5 | – | 5 | –
Cn1c(C(F)(F)F)ccc(-c2cc(OCCCl)c(Cl)cc2F)c1=O [1-171] | 0 | – | 5 | – | 5 | – | 5 | – | 5 | – | 5 | – | 5 | – | 5 | – | 5 | – | 5 | –
C#CCOc1cc(-c2ccc(C(F)(F)F)n(N)c2=O)c(F)cc1Cl [1-178] | 1 | 5 | – | 5 | – | 5 | – | 5 | – | 5 | – | – | – | – | – | – | – | – | – | 1
COc1cc(-c2ccc(C(F)(F)F)n(N)c2=O)c(F)cc1Cl [1-179] | 0 | – | 5 | – | 5 | – | 5 | – | 5 | – | 5 | – | – | – | – | – | – | – | – | –
CCOCOc1cc(-c2ccc(C(F)(F)F)n(C)c2=O)c(F)cc1Cl [1-181] | 0 | – | 5 | – | 5 | – | 5 | – | 5 | – | 5 | – | 5 | – | 5 | – | 5 | – | 5 | –
C#CC(C)Oc1cc(Cl)cc(F)c1-c1ccc(C(F)(F)F)n(C)c1=O (stereo not drawn) [1′-5] | 0 | 5 | 5 | 5 | 5 | 4 | 5 | 5 | 5 | 5 | 5 | 5 | 5 | 5 | 5 | 4 | 5 | 5 | 5 | 0
C=CC(C)Oc1cc(-c2ccc(C(F)(F)F)n(C)c2=O)c(F)cc1Cl (stereo not drawn) [Compound 1-182] | 0 | – | 5 | – | 5 | – | 5 | – | 5 | – | 5 | – | 5 | – | 5 | – | 5 | – | 5 | –
C#CCN1C(=O)COc2cc(F)c(-c3cn(C)c(C(F)(F)F)cc3=O)cc21 [Compound 7-1] | 1 | – | 5 | – | – | – | 5 | – | 5 | – | 5 | – | 5 | – | 5 | – | 5 | – | 5 | –
Cn1c(C(F)(F)F)ccc(-c2cc(C#N)c(Cl)cc2F)c1=O [Compound No. 1-119, 3-(4-chloro-5-cyano-2-fluorophenyl)-1-methyl-6-trifluoromethyl-2(1H)-pyridone] | 0 | – | – | – | – | – | – | – | – | – | – | – | 5 | – | 5 | – | 5 | – | 5 | –
Cc1cc2c(-c3cn(C)c(C(F)(F)F)cc3=O)c(F)cc(Cl)c2o1 [Compound No. 9-1, 5-(7-chloro-5-fluoro-2-methylbenzofuran-4-yl)-1-methyl-2-trifluoromethyl-4(1H)-pyridone] | 0 | 5 | 5 | 5 | 5 | 5 | 5 | 5 | 4 | 5 | 5 | – | – | – | – | – | – | – | – | 0
